{"source": "patent US11896704B2", "about": "“Compounds useful for the treatment and/or care of the skin, hair, nails and/or mucous membranes” (LUBRIZOL ADVANCED MATERIALS, INC., priority 2017, dated 2024)", "key": {"JARID1A gene": {"system": "JARID1A gene", "experiment": "JARID1A gene expression in synchronized human epidermal keratinocytes (HEKa), real time PCR arrays", "assay_type": "cell-based", "conditions": "0.5 mg/ml, one experiment", "description": "In Vitro Study of JARID1A Gene Expression in Synchronized Human Epidermal Keratinocytes from Adult (HEKa) Using Real Time PCR Arrays.\nHEKa cells (Life Technologies) are seeded at 3.0×10^5 cells/well in 12-well plates (2 wells per condition) and incubated in culture medium, Keratinocyte growth medium supplemented with Mix C39016-CaCl2 solution (Promocell). For synchronization, cells were subjected to two alternative cycles of 12 hours each at 37° C. in 5% CO2 humidified air (day mode) and 33° C. in 5% CO2 humidified air (night mode). 12 hours after starting synchronization, cells are incubated with the peptides at 0.5 mg/ml or (5 μg/ml) in culture medium, depending on the toxicity effects of each peptide (non-toxic conditions are selected). Cells treated with medium alone are used as basal condition.\nAt the end of synchronization, cell lysates are collected at two different times: 7:30 hour (early morning point) and 11:30 hour (midday point). Briefly, cells are lysed directly in the wells, and RNA is purified following the protocol described on the RNeasy™ Mini kit (Qiagen) according to the manufacture's protocol. After RNA elution, quantification and analysis of purity of RNA samples are performed with a nanodrop (Thermo). For each sample, 3 μg of high quality RNA is retrotranscribed with iScript Advanced™ (BioRad) in a final volume of 20 μl. Complete reaction mix is incubated in a thermal cycler (Eppendorf) at 42° C. for 30 minutes, and the reaction is stopped at 85° C. for 5 minutes. Complementary DNA is amplified by qPCR in a real-time PCR thermocycler (BioRad) using SYBR Green Supermix™ (BioRad) in the 96-well plate for use with SYBR® Green (BioRad). SYBR Green binds to double-stranded DNA molecules and emits fluorescence which is quantified, and the fluorescence intensity is proportional to the amount of the product in the PCR reaction. Cycling conditions in BioRad CFX96™ instrument are: 95° C. for 3 minutes, followed by 40 cycles of denaturing at 95° C. for 5 seconds, annealing and elongation at 60° C. for 30 seconds. GAPDH (Glyceraldehyde 3-phosphate dehydrogenase), TBP (TATA box binding protein) and HRPT1 (hypoxanthine phosphoribosyltransferase 1) are used as endogenous controls. Fold change relative to the expression of the sample genes and reference genes is calculated using normalized expression (AA(Ct)) method using CFX Manager Software™ (BioRad).\nFold induction of JARID1A gene at 7:30 hour with respect to basal conditions at 7:30 hour for the samples tested are shown in Table 7. The data for fold induction represent the value of one experiment."}, "[1]": {"system": "CRY2 (cryptochrome circadian clock 2)", "experiment": "Clock gene expression in synchronized HEKa, real time PCR: CRY2", "assay_type": "cell-based, Human", "conditions": "0.5 mg/ml", "description": "(§1) In Vitro Study of Clock Genes Expression in Synchronized Human Epidermal Keratinocytes from Adult (HEKa) Using Real Time PCR Arrays. HEKa cells (Life Technologies) are seeded at 3.0×10^5 cells/well in 12-well plates and incubated in culture medium, Keratinocyte growth medium supplemented with Mix C39016-CaCl2 solution (Promocell). For synchronization, cells were subjected to two alternative cycles of 12 hours each at 37° C. in 5% CO2 humidified air (day mode) and 33° C. in 5% CO2 humidified air (night mode). 12 hours after starting synchronization, cells are incubated with the synthetic peptide […] (PEP-1, H-[SEQ ID. NO. 2]-NH2) at 0.5 mg/ml in culture medium. Cells treated with medium alone are used as basal condition. At the end of synchronization, cell lysates are collected at two different times: 7:30 hour (early morning point) and 11:30 hour (midday point). […] After RNA elution, quantification and analysis of purity of RNA samples are performed with a nanodrop (Thermo). […] SYBR Green binds to double-stranded DNA molecules and emits fluorescence which is quantified, and the fluorescence intensity is proportional to the amount of the product in the PCR reaction. […] Fold change relative to the expression of the sample genes and reference genes is calculated using normalized expression (ΔΔ(Ct)) method using CFX Manager Software (BioRad)."}, "[2]": {"system": "PER3 (period circadian clock 3)", "experiment": "Clock gene expression in synchronized HEKa, real time PCR: PER3", "assay_type": "cell-based, Human", "conditions": "0.5 mg/ml", "description": "as §1"}}}
{"substance": "H-Phe-Trp-Met-Lys-Arg-Lys-Arg-Val-Pro-NH2 (H-FWMKRKRVP-NH2) [PEP-1]", "values": [{"measurement": "Fold induction with respect to Basal condition at 7:30h (%)", "setting": "JARID1A gene", "result": 212.39, "unit": "%"}, {"measurement": "Fold induction respect to Basal condition at 7:30 h (%)", "setting": "[1]", "result": 132.5, "unit": "%"}, {"measurement": "Fold induction respect to Basal condition at 7:30 h (%)", "setting": "[2]", "result": 182.5, "unit": "%"}]}
